# Data: ChEMBL document CHEMBL1158228, “Anti-HIV triterpene acids from Geum japonicum” (J Nat Prod, 1996)
# Biological target: Protease (Human immunodeficiency virus 1) (UniProt Q9YQ12)
# Test: Inhibition of HIV1 recombinant protease expressed in Escherichia coli DH5alpha at 17.9 ug/mL after 2 hrs by HPLC assay
# Chain of Protease (Human immunodeficiency virus 1) (Q9YQ12 as listed by the source): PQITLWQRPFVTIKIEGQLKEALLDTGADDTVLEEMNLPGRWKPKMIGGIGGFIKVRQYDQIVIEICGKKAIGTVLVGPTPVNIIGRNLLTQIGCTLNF
row,inhibition [%],SMILES
1,42,C[C@@H]1CC[C@]2(C(=O)O)CC[C@]3(C)C(=CC[C@@H]4[C@@]5(C)CC[C@@H](O)C(C)(C)[C@@H]5CC[C@]43C)[C@@H]2[C@]1(C)O
2,85,C[C@H]1[C@H](C)CC[C@]2(C(=O)O)CC[C@]3(C)C(=CC[C@@H]4[C@@]5(C)CC[C@H](O)C(C)(C)[C@@H]5CC[C@]43C)[C@H]12
3,0,C[C@@H]1CC[C@]2(C(=O)O)CC[C@]3(C)C(=CC[C@@H]4[C@@]5(C)C[C@@H](O)[C@@H](O)C(C)(C)[C@@H]5CC[C@]43C)[C@@H]2[C@]1(C)O
4,100,CC1(C)CC[C@]2(C(=O)O)CC[C@]3(C)C(=CC[C@@H]4[C@@]5(C)C[C@@H](O)[C@H](O)C(C)(C)[C@@H]5CC[C@]43C)[C@@H]2C1
5,72,C[C@@H]1CC[C@]2(C(=O)O)CC[C@]3(C)C(=CC[C@@H]4[C@@]5(C)C[C@@H](O)C(=O)C(C)(C)[C@@H]5CC[C@]43C)[C@@H]2[C@]1(C)O
6,49,C[C@@H]1CC[C@]2(C(=O)O)CC[C@]3(C)C(=CC[C@@H]4[C@@]5(C)C[C@@H](O)[C@H](O)C(C)(C)[C@@H]5CC[C@]43C)[C@@H]2[C@]1(C)O
